Source: US20240002442A1, “CYCLIC PEPTIDES WITH ANTIMICROBIAL PROPERTIES” (priority 2020, published 2024)
Values joined by “and” are separate entries in the source; they are usually repeats but may differ in a detail not shown here. Equal entries are not always repeated. Where two headings read alike, the source gives them in different places.

Experiments:
[1] = system: Burkholderia cenocepacia ATCC BAA-245
[2] = system: Shigella sonnei ATCC 25931
[3] = system: Bacteroides fragilis KLE 2244
[4] = system: Pseudomonas aeruginosa PA14
[5] = system: Clostridium bifermentans KLE 2329
[6] = system: Salmonella enterica typhimurium LT2A TCC 19585
[7] = system: Acinetobacter baumannii ATCC 19606
[8] = system: Bacteroides stercoris KLE 2537
[9] = system: Staphylococcus aureus HG003
[10] = system: Yersinia pseudotuberculosis ATCC 6904
[11] = system: Salmonella enterica Enteritidis AR496
[12] = system: Escherichia coli ATCC 25922
[13] = system: Pseudomonas aeruginosa PA01
[14] = system: Moraxella catarrhalis ATCC 25248
[15] = system: Veillonella ratti KLE 2365
[16] = system: Photorhabdus australis DSM 17609
[17] = system: Escherichia coli K-12 MG1655
[18] = system: Vibrio vulnificus KLE δ-1125
[19] = system: Limosilactobaccilus reuteri LTH5448
[20] = system: Klebsiella pneumoniae AR347
[21] = system: Enterobacter cloaceae ATCC 13047

## CC(C)C(NC(=O)C1NC(=O)C(CO)NC(=O)C(CC(N)=O)NC(=O)C(N)Cc2c[nH]c3cc(ccc23)C1C(N)=O)C(=O)NC1Cc2cn(cn2)C(c2ccc(O)cc2)C(C(=O)NC(CCCNC(=N)N)C(=O)NC(Cc2ccccc2)C(=O)O)NC(=O)C(CO)NC1=O (stereo not shown) [Formula (I)]
Escherichia coli AR350
  MIC: 8 µg/mL
[1]
  MIC: >1000 µg/mL
Proteus mirabilis BB2000; Proteus mirabilis BB2000
  MIC: 125 µg/mL
Proteus mirabilis H14320; Proteus mirabilis H14320
  MIC: 64 µg/mL
[2]
  MIC: 4 µg/mL
[3]
  MIC: >128 µg/mL
[4]; Pseudomonas aeruginosa PA14
  MIC: 16 µg/mL
[5]
  MIC: >128 µg/mL
[6]
  MIC: 8 µg/mL
[7]; Acinetobacter baumannii ATCC 19606
  MIC: 16 µg/mL
Escherichia coli MG1655; Escherichia coli MG1655
  MIC: 16 µg/mL
[8]
  MIC: >128 µg/mL
[9]; Staphylococcus aureus HG003
  MIC: >1000 µg/mL
[10]; ATCC 6904
  MIC: 8 µg/mL
[11]
  MIC: 8 µg/mL
[12]
  MIC: 8 µg/mL
Bacillus subtilis 168; Bacillus subtilis 168
  MIC: >1000 µg/mL
[13]; Pseudomonas aeruginosa PA01
  MIC: 8 µg/mL
[14]
  MIC: 2 µg/mL
[15]
  MIC: 16 µg/mL
[16]; Photorhabdus australis DSM 17609 (producer strain; listed twice)
  MIC: 250 µg/mL and >128 µg/mL
[17]
  MIC: 16 µg/mL
[18]
  MIC: 8 µg/mL
[19]
  MIC: >128 µg/mL
[20]
  MIC: 64 µg/mL
[21]
  MIC: 16 µg/mL

## CC(C)C(NC(=O)C1NC(=O)C(CO)NC(=O)C(CC(N)=O)NC(=O)C(NC(=O)C(CO)NC(=O)C2CCCN2)Cc2c[nH]c3cc(ccc23)C1C(N)=O)C(=O)NC1Cc2cn(cn2)C(c2ccc(O)cc2)C(C(=O)NC(CCCNC(=N)N)C(=O)NC(Cc2ccccc2)C(=O)O)NC(=O)C(CO)NC1=O (stereo not shown) [Formula (III)]
Escherichia coli AR350
  MIC: 16 µg/mL
[1]
  MIC: >1000 µg/mL
Proteus mirabilis BB2000; BB2000
  MIC: 64 µg/mL
Proteus mirabilis H14320; H14320
  MIC: 32 µg/mL
[4]; PA14
  MIC: 32 µg/mL
[7]; ATCC 19606
  MIC: 8 µg/mL
Escherichia coli MG1655; MG1655
  MIC: 8 µg/mL
[9]; HG003
  MIC: >1000 µg/mL
[10]; Yersinia pseudotuberculosis ATCC 6904
  MIC: 16 µg/mL
[11]
  MIC: 32 µg/mL
Bacillus subtilis 168; 168
  MIC: >1000 µg/mL
[13]
  MIC: 16 µg/mL
[16]; DSM 17609
  MIC: 500 µg/mL
[20]
  MIC: 125 µg/mL
